Assay [1] has as its system TS-exposed female C57BL/6J mice. In words: Tobacco smoke (TS) model, lungs inflammatory cells recruitment. The assay is classed as in vivo, mouse. Particulars: days 6 to 11, TS-exposed mice. On the procedure:
The aim of this experiment is to evaluate the efficacy and potency of a test compound administered p.o., once or twice daily on days 6 to 11, vs reference compounds, on pulmonary inflammation induced by 11 days of TS-exposure in female C57BL/6J mice, by assessing the effect of a test compound on the tobacco smoke induced recruitment of inflammatory cells to the lungs.
The test compounds are formulated in PEG200/0.5% methylcellulose (25/75, v/v) and are given at a dose volume of 10 mL/kg. Roflumilast and Dexamethasone are included as positive […] control, respectively. Each treatment group consists of 10 mice.
A first group of mice is subjected to daily TS-exposure for 5 consecutive days and sacrificed on the day 6, 24 h after the final TS-exposure.
A second group is exposed to air for 5 consecutive days (sham exposure) and sacrificed on the day 6, 24 h after the final air-exposure.
Compound and reference-treated groups are subjected to daily TS-exposure for 11 consecutive days and sacrificed on the day 12, 24 h after the final TS-exposure. Mice are dosed p.o. on days 6 to 11, twice daily, 1 h prior to and 6 h after each TS-exposure, with either vehicle, or the test compound at 3, 5, 10 or 30 mg/kg. Another group is dosed p.o. on days 6 to 11, once daily, 1 h prior to each TS-exposure, with either vehicle, or the test compound at 10 mg/kg.
An additional group is dosed p.o., once daily, on days 6 to 11, with roflumilast at 5 mg/kg, 1 h prior to each TS-exposure. Dexamethasone is dosed p.o., twice daily, on days 6 to 11, at 0.3 mg/kg, 1 h prior to and 6 h after each TS-exposure.
For each mouse, a BAL is performed using 0.4 mL of PBS. The lavage fluid is centrifuged, the supernatant removed and the resulting cell pellet re-suspended for total cell counts and cytospin slide preparation. […]
The lungs are dissected out and the left lobes are removed, snap-frozen and stored at −80° C. […] Cell data are presented as individual data points for each animal and the mean value calculated for each group. […]
Percentage inhibitions for the cell data are calculated using the formula below: […]

The next assay concerns the target hENPP2 (Homo sapiens (Human), UniProt Q13822). In words: hENPP2 biochemical assay, LPC as substrate. How it is done:
The principle of the assay consists in quantifying the released choline with an enzymatic method using choline oxidase and peroxidase. Choline oxydation by choline oxydase releases betaine and peroxide. The latter is quantified in presence of HRP that converts the peroxide detection agent TOOS and 4-aminoantipyrine into quinoneimine dye. The appearance of quinoneimine dye is measured spectrophotometrically at 555 nm and is proportional to the amount of choline released by ENPP2. Inhibition of ENPP2 will result in a decrease of the signal.
Compound IC50 values are determined in a hENPP2 (UniProtKB/SwissProt Sequence ref Q13822) biochemical assay using LPC as substrate.
The enzyme is diluted in 50 mM Tris-HCl pH 8.5, 500 mM NaCl, 5 mM KCl, 10 mM CaCl2, 0.1% fatty acid free BSA in a total volume of 10 μL. the reaction is started by the addition of 10 μL of 150 μM LPC (palmitoyl 16:0) diluted in the same buffer as described above and the mixture is incubated at 37° C. for 30 min. The reaction is terminated and choline quantified by the addition of a 25 μL of a mixture containing 0.6 U/mL of choline oxidase, 0.6 U/mL of peroxydase, 1.8 mM TOOS, 1.2 mM amino-antipyrine, 20 mM EGTA (stop-developer solution) diluted in the buffer described above. […] is read on the Envision after an incubation of 30 min at room temperature (Excitation 555 nm, excitation light=70%).

One may read the IC50 as the midpoint of a concentration-inhibition curve.

As to `CCc1nc2c(C)cc(N3CCN(CC(=O)N4CC(O)C4)CC3)cn2c1N(C)c1nc(-c2ccc(F)cc2)c(C#N)s1` [Compound 2, 2-((2-ethyl-6-(4-(2-(3-hydroxyazetidin-1-yl)-2-oxoethyl)piperazin-1-yl)-8-methylimidazo[1,2-a]pyridin-3-yl)(methyl)amino)-4-(4-fluorophenyl)thiazole-5-carbonitrile], the “number of cells recovered in the BALF, in particular macrophage cells, epithelial cells, and neutrophils” value in assay [1] (3 mg/kg twice daily p.o.) and in assay [1] (10 mg/kg twice daily p.o.) was “significantly inhibited” in each case. For `CCc1nc2c(F)cc(N3CCN(CC(=O)N4CC(O)C4)CC3)cn2c1N(C)c1nc(-c2ccc(F)cc2)c(C#N)s1` [Compound 12, 2-((2-ethyl-8-fluoro-6-(4-(2-(3-hydroxyazetidin-1-yl)-2-oxoethyl)piperazin-1-yl)imidazo[1,2-a]pyridin-3-yl)(methyl)amino)-4-(4-fluorophenyl)thiazole-5-carbonitrile], the “number of cells recovered in the BALF, in particular macrophage cells, epithelial cells, and neutrophils” value in assay [1] (10 mg/kg twice daily p.o.) is “significantly inhibited”.

In turn, `CCc1nc2ccc(C3CCN(C4=NCC(CO)O4)CC3)cn2c1N(C)c1nc(-c2ccc(F)cc2)cs1` (stereo not shown) [Compound 222] came in with an IC50 against hENPP2 of 500 to 1000 nM.

For the origin of these results see patent publication US10526329B2 (Galapagos NV, priority 2013, dated 2020).
